Assay results reported in patent US20110046056A1, “APOA-1 PEPTIDE MIMETICS” (priority 2007, published 2011).
*1 amine or outer side, *2 acyl side, *3 side chain or, on linkers, in order; H or OH if unused. Where a SMILES comes first, the peptide text is derived from it. Bridges are numbered along the chain shown (N, C = ends). Where no end group is shown, it is not given here. [ ]: non-standard residue; d: D form. X2 = O=C([C@@H](CCCCC=[*:3])N[*:1])[*:2]; X3 = O=C([C@H](CCCCCC=[*:3])N[*:1])[*:2]; Ala(5-hexenyl) = C=CCCCCC[C@H](N)C(=O)O; dNle(6-vinyl) = C=CCCCC[C@@H](N)C(=O)O; R5 = C=CCCC[C@@](C)(N)C(=O)O; 12H3 = not defined here

Tests used:
[1] = target: T1, ABCA1 cholesterol transporter protein (Mus musculus, UniProt P41233); assay: ABCA1-dependent cholesterol efflux from RAW mouse macrophage cells (in vitro RCT assay); format: cell-based
T1 construct: endogenous in cells
Summary of the method: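 RAW macrophages labelled with ^3H-cholesterol (5 μCi/ml) 24 h, equilibrated overnight serum-free, then given eight-point peptide titrations 24 h with or without 150 μM CPT-cAMP. Percent efflux = medium counts/(medium + lysate); plain-medium efflux subtracted from cAMP value gives ABCA1-dependent efflux, fitted for EC50.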

[2] = Lipid (liposome) solubilization, turbidimetric method; format: biochemical
Description: As noted above, the other important parameter was phospholipid solubilization. A turbidimetric method is used to determine the solubilization capacity of peptides of the present invention. First, a three-fold serial titration of the peptide is prepared in a polypropylene v-shaped 96-well plate. The eight-point titration is done in phosphate-buffered saline (PBS, pH 7.5) or DMSO from a starting concentration that allows for addition to an optically-clear bottomed assay plate in <100 μl aliquots to yield a starting concentration of 500 μM in 200 μl final well volume. PBS is then added to each well to bring the total volume to 100 μl. Any bubbles in the wells must be dispersed to avoid erroneous results. Next, from a turbid but homogeneous emulsion of dimyristoyl phosphatidylcholine at 0.5 mg/ml in PBS, 100 μl is added to each well in the assay plate, the plate is inserted into the NEPHELOSTAR (BMG LABTECH INSTRUMENTS), and readings are taken immediately and every 15 minutes over 2 hours.
A true 0-point value is calculated by averaging the readings of the wells with phospholipid but no peptide. For each peptide concentration, a percent decrease in turbidity is calculated by subtracting the 0-point value from the corresponding 30 and 120 minute readings and dividing by that 0-point value. Finally the EC50 values for both time points are determined using PRISM software (Table 2).

[3] = target: T2, ATP-binding cassette transporter A1 (ABCA1) (mouse, UniProt P41233 1-2261); assay: cell-based or functional assay
[4] = target: T2, ATP-binding cassette transporter A1 …; assay: cell-based or functional assay; remark: listed apart in the source

T2 sequence (P41233 whole entry): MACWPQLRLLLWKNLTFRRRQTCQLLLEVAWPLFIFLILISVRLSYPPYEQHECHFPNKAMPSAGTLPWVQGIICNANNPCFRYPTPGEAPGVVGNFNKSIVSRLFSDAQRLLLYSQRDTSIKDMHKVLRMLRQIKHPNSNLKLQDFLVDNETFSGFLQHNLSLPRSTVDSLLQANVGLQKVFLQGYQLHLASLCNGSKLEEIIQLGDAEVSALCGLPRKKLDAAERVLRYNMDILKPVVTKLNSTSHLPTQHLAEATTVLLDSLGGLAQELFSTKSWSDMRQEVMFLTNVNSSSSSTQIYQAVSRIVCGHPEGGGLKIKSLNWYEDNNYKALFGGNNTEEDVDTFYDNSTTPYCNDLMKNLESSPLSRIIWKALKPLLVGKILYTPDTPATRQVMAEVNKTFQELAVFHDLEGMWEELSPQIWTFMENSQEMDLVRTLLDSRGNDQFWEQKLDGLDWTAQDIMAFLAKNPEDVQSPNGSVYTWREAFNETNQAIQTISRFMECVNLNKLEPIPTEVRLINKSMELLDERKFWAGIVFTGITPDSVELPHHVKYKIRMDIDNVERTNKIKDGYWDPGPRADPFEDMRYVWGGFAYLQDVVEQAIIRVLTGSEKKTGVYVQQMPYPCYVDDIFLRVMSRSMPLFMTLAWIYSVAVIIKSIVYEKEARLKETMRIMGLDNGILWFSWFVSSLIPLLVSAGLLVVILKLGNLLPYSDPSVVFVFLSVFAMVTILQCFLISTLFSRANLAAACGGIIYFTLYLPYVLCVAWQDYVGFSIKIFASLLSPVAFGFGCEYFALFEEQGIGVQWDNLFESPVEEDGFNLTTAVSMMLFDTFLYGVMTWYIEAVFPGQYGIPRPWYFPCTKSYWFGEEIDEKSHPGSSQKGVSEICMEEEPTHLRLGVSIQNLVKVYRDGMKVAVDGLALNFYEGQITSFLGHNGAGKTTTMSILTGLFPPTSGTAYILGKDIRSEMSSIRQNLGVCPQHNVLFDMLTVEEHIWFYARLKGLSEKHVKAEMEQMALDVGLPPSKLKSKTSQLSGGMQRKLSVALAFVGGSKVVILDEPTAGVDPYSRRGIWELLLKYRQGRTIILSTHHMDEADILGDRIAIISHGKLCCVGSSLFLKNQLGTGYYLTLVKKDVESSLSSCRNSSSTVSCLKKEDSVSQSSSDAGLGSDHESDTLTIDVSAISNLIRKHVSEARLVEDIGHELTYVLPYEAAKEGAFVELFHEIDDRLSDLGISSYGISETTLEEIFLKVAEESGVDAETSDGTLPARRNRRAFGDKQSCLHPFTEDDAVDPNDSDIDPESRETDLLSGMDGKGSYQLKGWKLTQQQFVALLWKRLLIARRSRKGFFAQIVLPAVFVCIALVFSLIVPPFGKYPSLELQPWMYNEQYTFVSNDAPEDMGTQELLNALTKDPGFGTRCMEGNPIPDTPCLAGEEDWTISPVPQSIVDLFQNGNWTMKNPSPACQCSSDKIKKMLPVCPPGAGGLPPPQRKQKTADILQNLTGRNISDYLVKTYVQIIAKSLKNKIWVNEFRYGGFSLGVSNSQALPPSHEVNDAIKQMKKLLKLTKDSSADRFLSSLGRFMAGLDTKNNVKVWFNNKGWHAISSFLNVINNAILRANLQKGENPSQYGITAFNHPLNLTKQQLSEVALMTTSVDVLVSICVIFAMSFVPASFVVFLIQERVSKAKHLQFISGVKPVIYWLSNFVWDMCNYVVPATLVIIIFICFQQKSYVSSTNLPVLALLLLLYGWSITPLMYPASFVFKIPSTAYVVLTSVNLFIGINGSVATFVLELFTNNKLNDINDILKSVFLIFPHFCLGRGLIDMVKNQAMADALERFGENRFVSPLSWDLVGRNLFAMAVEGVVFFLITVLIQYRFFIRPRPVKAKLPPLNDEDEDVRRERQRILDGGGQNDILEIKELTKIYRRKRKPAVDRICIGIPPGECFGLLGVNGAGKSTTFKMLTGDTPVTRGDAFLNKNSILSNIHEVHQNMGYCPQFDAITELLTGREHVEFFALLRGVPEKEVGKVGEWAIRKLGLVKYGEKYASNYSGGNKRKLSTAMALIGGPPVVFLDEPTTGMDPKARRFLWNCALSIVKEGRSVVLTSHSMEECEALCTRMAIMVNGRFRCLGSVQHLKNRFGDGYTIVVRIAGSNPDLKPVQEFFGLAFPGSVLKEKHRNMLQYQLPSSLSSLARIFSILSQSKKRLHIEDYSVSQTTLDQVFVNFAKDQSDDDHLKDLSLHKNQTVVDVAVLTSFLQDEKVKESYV
T1 sequence (P41233 whole entry): as above

CC(=O)N1CCC[C@H]1C(=O)N[C@H](C(=O)N[C@@H](CC(C)C)C(=O)N[C@@H](CC(=O)O)C(=O)N[C@@H](CCC(=O)O)C(=O)N[C@@H]1CCCCC=CCCCCC[C@@H](C(=O)N[C@@H](CC(C)C)C(=O)N[C@@H](CCC(=O)O)C(=O)N[C@@H](C)C(=O)N[C@@H](CC(C)C)C(=O)N[C@@H](CCCCN)C(=O)N[C@@H](CCC(N)=O)C(=O)N[C@@H](CCCCN)C(=O)N[C@@H](CC(C)C)C(=O)N[C@@H](CCCCN)C(N)=O)NC(=O)[C@H](CCC(=O)O)NC(=O)[C@H](CC(N)=O)NC(=O)[C@H](CC(C)C)NC(=O)[C@H](CCCCN)NC(=O)[C@H](CCC(=O)O)NC(=O)[C@H](CCCNC(=N)N)NC1=O)C(C)C [SEQ ID NO 14, PVLDER6HREKLNES7HLEALKQKLK (CYCLO R6H6-S7H13)] (Ac-PVLDE[X2]REKLNE[X3]LEALKQKLK-NH2; staple 6-13; C-terminus assumed)
EC50 ([1]; read-out: EC50 in the cholesterol efflux assay (RCT in vitro assay)): 2 µM
IC50 ([2]; read-out: IC50 in the liposome solubilization assay): 43 µM

Ac-PVLDEFREKLNEELEALKQKLK-NH2 [SEQ ID NO 1, reference compound]
activity in the cholesterol efflux / in vitro RCT assay, in words [1]: inactive
lipid binding / ability to clear liposome turbidity, in words [2]: inactive

PVLDEFREKLNEELEALKQKLK [compound 1]
ABCA1-DEPENDENT CHOLESTEROL EFFLUX EC50 ([1]; RAW cells, cAMP-stimulated minus plain medium efflux): NOT ACTIVE
LIPID SOLUBILIZATION IC50 ([2]; Measured at 2 h): NOT ACTIVE

PVLDEFRER5MELNER5MELEALKQKLK (Ac-PVLDEFRE[R5]LNE[R5]LEALKQKLK; not fully specified (C-terminus); bridges not given here) [SEQ ID NO 16]
activity in the cholesterol efflux / in vitro RCT assay, in words [1]: very low to no activity
lipid binding / ability to clear liposome turbidity, in words [2]: good lipid binding

PVLDEFRES5HLNES5HLEALKQKLK (Ac-PVLDEFRE[S5H]LNE[S5H]LEALKQKLK; not fully specified (C-terminus)) [SEQ ID NO 15]
activity in the cholesterol efflux / in vitro RCT assay, in words [1]: very low to no activity
lipid binding / ability to clear liposome turbidity, in words [2]: good lipid binding

Ac-PVLDEFREKLNE[Ala(5-hexenyl)]LEALKQKLK [CONS[S7H^13]]
EC50 in the RCT in vitro assay [3]: 1.6 µM
EC50 in the cholesterol efflux assay [3]: 2.8 µM
ABCA1-dependent cholesterol efflux EC50 [4]: 2 µM

Ac-PVLDE[Ala(5-hexenyl)]REKLNE[dNle(6-vinyl)]LEALKQKLK [S7H [F6-E13]R6H OPEN]
EC50 in the cholesterol efflux assay [3]: 1.2 µM
ABCA1-dependent cholesterol efflux EC50 [4]: 1.3 µM

B1: CONS[(RS)12H3^13] (peptide)
peptide: Ac-PVLDEFREKLNE[12H3]LEALKQKLK
modifications: not fully specified (C-terminus); printed as PVLDEFREKLNE-(RS)12H3-LEALKQKLK; reading uncertain
EC50 in the RCT in vitro assay [3]: 0.2 to 0.4 µM
